Reference: US7354925B2, “Alpha aryl or heteroaryl methyl beta piperidino propanamide compounds as ORL1-receptor antagonists” (Pfizer Inc., priority 2004, dated 2008)
Counter-ions that a name gives are not always drawn.

What was measured:
human ORL1 receptor = target: T1, human ORL1 receptor (Homo sapiens, UniProt P41146); test: ORL1-receptor binding assay; conditions: [3H]nociceptin, human ORL1 receptor transfected HEK-293 cell membranes; read-out: Ki value with regard to binding affinity for the ORL1 receptor
T1 construct: purchased PerkinElmer; host or cells: HEK-293 (transfected), membranes
T1 sequence (P41146 whole entry): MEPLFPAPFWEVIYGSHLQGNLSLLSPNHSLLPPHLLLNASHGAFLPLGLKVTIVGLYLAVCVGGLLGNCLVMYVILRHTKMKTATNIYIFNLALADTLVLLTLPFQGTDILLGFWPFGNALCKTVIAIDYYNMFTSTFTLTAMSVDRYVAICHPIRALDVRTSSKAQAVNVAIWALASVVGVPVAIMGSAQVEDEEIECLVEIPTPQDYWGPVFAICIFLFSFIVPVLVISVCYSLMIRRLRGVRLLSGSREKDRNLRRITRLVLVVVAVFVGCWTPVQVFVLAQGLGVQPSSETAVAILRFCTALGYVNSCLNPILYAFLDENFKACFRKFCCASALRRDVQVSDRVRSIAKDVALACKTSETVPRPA
Description: The human ORL1 receptor transfected HEK-293 cell membranes (PerkinElmer) were incubated for 45 min at room temperature with 0.4 nM [^3H]nociceptin, 1.0 mg of wheat germ agglutinin (WGA)-coated SPA beads and various concentrations of test compounds in a final volume of 200 μL of 50 mM HEPES buffer pH 7.4 containing 10 mM MgCl2 and 1 mM EDTA. Non-specific binding (NSB) was determined by the addition of 1 μM unlabeled nociceptin. After the reaction, the assay plate was centrifuged at 1,000 rpm for 1 min and then the radioactivity was measured by WALLAC 1450 MicroBeta Trilux.

[1] = target: T2, HERG type potassium channel (Homo sapiens, UniProt Q12809); type: binding
T2 construct: expressed in transfected cells; host or cells: HEK-293 cells expressing HERG; membrane homogenate
T2 sequence (Q12809 whole entry): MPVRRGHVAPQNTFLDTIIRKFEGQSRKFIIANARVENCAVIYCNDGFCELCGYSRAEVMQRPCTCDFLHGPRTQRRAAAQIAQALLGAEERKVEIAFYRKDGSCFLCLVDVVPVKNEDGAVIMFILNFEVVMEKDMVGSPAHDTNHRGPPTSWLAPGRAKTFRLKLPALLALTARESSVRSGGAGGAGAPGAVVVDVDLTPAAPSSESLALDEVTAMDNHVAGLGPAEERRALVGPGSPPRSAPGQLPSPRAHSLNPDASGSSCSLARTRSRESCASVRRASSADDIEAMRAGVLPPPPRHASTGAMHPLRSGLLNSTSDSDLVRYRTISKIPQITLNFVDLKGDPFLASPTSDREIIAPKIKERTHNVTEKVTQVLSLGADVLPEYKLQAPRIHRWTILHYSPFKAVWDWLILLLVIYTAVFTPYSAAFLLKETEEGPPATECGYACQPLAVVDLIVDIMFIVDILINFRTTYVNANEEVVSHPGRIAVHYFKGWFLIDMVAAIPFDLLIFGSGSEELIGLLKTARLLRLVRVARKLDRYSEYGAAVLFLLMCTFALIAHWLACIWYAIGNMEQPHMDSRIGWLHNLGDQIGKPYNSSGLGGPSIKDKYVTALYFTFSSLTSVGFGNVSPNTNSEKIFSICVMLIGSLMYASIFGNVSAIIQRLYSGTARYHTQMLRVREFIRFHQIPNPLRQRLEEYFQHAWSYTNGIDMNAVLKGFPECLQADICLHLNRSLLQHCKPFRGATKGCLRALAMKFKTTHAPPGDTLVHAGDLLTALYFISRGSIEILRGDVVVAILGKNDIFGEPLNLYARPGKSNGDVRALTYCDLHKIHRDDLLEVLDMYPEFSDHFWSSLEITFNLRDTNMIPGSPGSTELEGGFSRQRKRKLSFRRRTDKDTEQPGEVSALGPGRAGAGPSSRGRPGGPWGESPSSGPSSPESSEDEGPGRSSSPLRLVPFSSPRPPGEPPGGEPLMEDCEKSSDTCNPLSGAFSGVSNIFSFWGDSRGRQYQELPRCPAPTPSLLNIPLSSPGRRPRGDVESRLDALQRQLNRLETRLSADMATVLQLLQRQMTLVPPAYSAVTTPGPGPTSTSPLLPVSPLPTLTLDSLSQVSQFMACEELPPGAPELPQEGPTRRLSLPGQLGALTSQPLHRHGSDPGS
Description: Cell paste of HEK-293 cells expressing the HERG product can be suspended in 10-fold volume of 50 mM Tris buffer adjusted at pH 7.5 at 25° C. with 2 M HCl containing 1 mM MgCl2, 10 mM KCl. The cells were homogenized using a Polytron homogenizer (at the maximum power for 20 seconds) and centrifuged at 48,000 g for 20 min at 4° C. The pellet was resuspended, homogenized and centrifuged once more in the same manner. The resultant supernatant was discarded and the final pellet was resuspended (10-fold volume of 50 mM Tris buffer) and homogenized at the maximum power for 20 sec. The membrane homogenate was aliquoted and stored at −80° C. until use. Analiquot was used for protein concentration determination using a Protein Assay Rapid Kit and ARVO SX plate reader (Wallac). […] Saturation was determined by incubating 20 μL of [^3H]-dofetilide and 160 μl of membrane homogenates (20-30 μg protein per well) for 60 min at room temperature in the absence or presence of 10 μM dofetilide at final concentrations (20 μL) for total or nonspecific binding, respectively. […] Receptor-bound radioactivity was quantified by liquid scintillation counting using Packard LS counter.
For the competition assay, compounds were diluted in 96 well polypropylene plates as 4-point dilutions in semi-log format. […] Receptor-bound radio activity was quantified by counting Wallac MicroBeta plate counter.

Row | SMILES | Ki (human ORL1 receptor) [nM] | activity in the dofetilide binding assay [1]
1 | CN(C)C(=O)C(Cc1cscn1)CN1CCC2(CC1)OCc1ccc(F)cc12 (single isomer, unassigned; (-)) [Example 92, (−)-3-(6-FLUORO-1′H,3H-SPIRO[2-BENZOFURAN-1,4′-PIPERIDIN]-1′-YL)-N,N-DIMETHYL-2-(1,3-THIAZOL-4-YLMETHYL)P[…], CITRATE] | 5 | 
2 | CN1C(=O)C(CN2CCC3(CCc4ccccc43)CC2)Cc2ccccc21 (stereo not drawn) [Compound (i)] |  | potent activity
3 | CN(C)C(=O)C(CN1CCC2(CC1)OCc1ccc(F)cc12)Cn1cccn1 (single isomer, unassigned; (-)) [Example 102, (−)-3-(6-FLUORO-1′H,3H-SPIRO[2-BENZOFURAN-1,4′-PIPERIDIN]-1′-YL)-N,N-DIMETHYL-2-(1H-PYRAZOL-1-YLMETHYL)P[…], CITRATE] | 12 | 
